Measurements published in patent US10301280B2 (Plexxikon Inc., priority 2012, dated 2019).

Biological target: c-kit mutant D816V (Homo sapiens (Human), UniProt P10721, D816V/DEL694-753)
Assay: c-Kit mutant D816V biochemical assay (AlphaScreen)
Conditions: c-kit D816V biochemical inhibitory activity
How it was run: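 His-tagged c-Kit D816V kinase domain (551-934, Δ694-753, E. coli) phosphorylating 30 nM biotin-(E4Y)10 at 10 μM ATP in HEPES pH 7.2 with Mg/Mn, 5% DMSO, 30 min at room temperature. PY20-acceptor/streptavidin-donor AlphaScreen detection after EDTA stop. IC50 from 8-point 1:3 titration.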

Chain of c-kit mutant D816V (P10721 other isoform, or with tags, fused parts or gaps D816V/del 694-753): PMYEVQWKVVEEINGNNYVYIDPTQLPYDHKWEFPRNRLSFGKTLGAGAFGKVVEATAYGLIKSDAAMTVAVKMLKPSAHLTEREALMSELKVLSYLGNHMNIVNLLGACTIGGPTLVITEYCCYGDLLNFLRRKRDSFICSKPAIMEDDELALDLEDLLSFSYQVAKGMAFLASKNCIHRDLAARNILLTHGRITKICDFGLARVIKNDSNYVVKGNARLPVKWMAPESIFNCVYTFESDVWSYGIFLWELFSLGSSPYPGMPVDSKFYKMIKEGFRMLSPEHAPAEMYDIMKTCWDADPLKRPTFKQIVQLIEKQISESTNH

| Compound | IC50 |
| --- | --- |
| Cc1[nH]nc(C(=O)Nc2cnc3[nH]c(-c4ccnc(N5CCN(C)CC5)c4)cc3c2)c1C [P-2069, 4,5-dimethyl-N-[2-[2-(4-methylpiperazin-1-yl)-4-pyridyl]-1H-pyrrolo[2,3-b]pyridin-5-yl]-1H-pyrazole-3-carboxamide] | 0.0001 to 1 µM |
| Cc1n[nH]c(C(=O)Nc2cnc3[nH]c(C4=CCN(C(=O)C(O)CO)CC4)cc3c2)c1C (stereo not drawn) [P-2074, N-[2-[1-(2,3-dihydroxypropanoyl)-3,6-dihydro-2H-pyridin-4-yl]-1H-pyrrolo[2,3-b]pyridin-5-yl]-3,4-dimethyl-1H-pyrazole-5-carboxamide] | 0.0001 to 1 µM |
| Cc1n[nH]c(C(=O)Nc2cnc3[nH]c(-c4c(C)noc4C)cc3c2)c1C [P-2065, N-[2-(3,5-dimethylisoxazol-4-yl)-1H-pyrrolo[2,3-b]pyridin-5-yl]-3,4-dimethyl-1H-pyrazole-5-carboxamide] | 0.0001 to 1 µM |
| Cc1n[nH]c(C(=O)Nc2cnc3[nH]c(C4=CCN(C(=O)N5CCOCC5)C4)cc3c2)c1Cl [P-2062, 4-chloro-3-methyl-N-[2-[1-(morpholine-4-carbonyl)-2,5-dihydropyrrol-3-yl]-1H-pyrrolo[2,3-b]pyridin-5-yl]-1H-pyrazole-5-carboxamide] | 0.0001 to 1 µM |
| CC(=O)N1CC=C(c2cc3cc(NC(=O)c4[nH]nc(C)c4Cl)cnc3[nH]2)CC1 [P-2061, N-[2-(1-acetyl-3,6-dihydro-2H-pyridin-4-yl)-1H-pyrrolo[2,3-b]pyridin-5-yl]-4-chloro-3-methyl-1H-pyrazole-5-carboxamide] | 0.0001 to 1 µM |
| Cc1n[nH]c(C(=O)Nc2cnc3[nH]c(-c4cccc(N(C)C)c4)cc3c2)c1C [P-2064, N-[2-[3-(dimethylamino)phenyl]-1H-pyrrolo[2,3-b]pyridin-5-yl]-3,4-dimethyl-1H-pyrazole-5-carboxamide] | 0.0001 to 1 µM |
| Cc1[nH]nc(C(=O)Nc2cnc3[nH]c(-c4cccc(N5CCOCC5)c4)cc3c2)c1C [P-2070, 4,5-dimethyl-N-[2-(3-morpholinophenyl)-1H-pyrrolo[2,3-b]pyridin-5-yl]-1H-pyrazole-3-carboxamide] | 0.0001 to 1 µM |
| Cc1n[nH]c(C(=O)Nc2cnc3[nH]c(-c4ccccc4)cc3c2)c1C [P-2007, 3,4-dimethyl-N-(2-phenyl-1H-pyrrolo[2,3-b]pyridin-5-yl)-1H-pyrazole-5-carboxamide] | 0.0001 to 1 µM |
| Cc1[nH]nc(C(=O)Nc2cnc3[nH]c(-c4ccc(N5CCOCC5)cc4)cc3c2)c1C [P-2059, 4,5-dimethyl-N-[2-(4-morpholinophenyl)-1H-pyrrolo[2,3-b]pyridin-5-yl]-1H-pyrazole-3-carboxamide] | 0.0001 to 1 µM |
| O=C(Nc1cnc2[nH]c(-c3ccccc3)cc2c1)c1[nH]ncc1Br [P-2005, 4-bromo-N-(2-phenyl-1H-pyrrolo[2,3-b]pyridin-5-yl)-1H-pyrazole-5-carboxamide] | 0.0001 to 1 µM |
| Cc1cc(C(=O)Nc2cnc3[nH]c(-n4cccn4)cc3c2)[nH]n1 [P-2116, 3-methyl-N-(2-pyrazol-1-yl-1H-pyrrolo[2,3-b]pyridin-5-yl)-1H-pyrazole-5-carboxamide] | 1 to 10 µM |
| Cc1n[nH]c(C(=O)Nc2cnc3[nH]c(-c4cccc(N5CCCC5)c4)cc3c2)c1C [P-2079, 3,4-dimethyl-N-[2-(3-pyrrolidin-1-ylphenyl)-1H-pyrrolo[2,3-b]pyridin-5-yl]-1H-pyrazole-5-carboxamide] | 0.0001 to 1 µM |
| Cc1n[nH]c(C(=O)Nc2cnc3[nH]c(C4=CCN(C(=O)CN5CCOCC5)CC4)cc3c2)c1C [P-2073, 3,4-dimethyl-N-[2-[1-(2-morpholinoacetyl)-3,6-dihydro-2H-pyridin-4-yl]-1H-pyrrolo[2,3-b]pyridin-5-yl]-1H-pyrazole-5-carboxamide] | 0.0001 to 1 µM |
| Cc1n[nH]c(C(=O)Nc2cnc3[nH]c(C4=CCC(N)CC4)cc3c2)c1C (stereo not drawn) [P-2080, N-[2-(4-aminocyclohexen-1-yl)-1H-pyrrolo[2,3-b]pyridin-5-yl]-3,4-dimethyl-1H-pyrazole-5-carboxamide] | 0.0001 to 1 µM |
| Cc1n[nH]c(C(=O)Nc2cnc3[nH]c(-c4cccc(N5CCN(C(=O)C6CC6)CC5)c4)cc3c2)c1C [P-2118, N-[2-[3-[4-(cyclopropanecarbonyl)piperazin-1-yl]phenyl]-1H-pyrrolo[2,3-b]pyridin-5-yl]-3,4-dimethyl-1H-pyrazole-5-carboxamide] | 0.0001 to 1 µM |
| Cc1n[nH]c(C(=O)Nc2cnc3[nH]c(-n4cccn4)cc3c2)c1C [P-2112, 3,4-dimethyl-N-(2-pyrazol-1-yl-1H-pyrrolo[2,3-b]pyridin-5-yl)-1H-pyrazole-5-carboxamide] | 0.0001 to 1 µM |
| Cc1n[nH]c(C(=O)Nc2cnc3[nH]c(-c4ccc(C(=O)NC5CC5)cc4)cc3c2)c1C [P-2148, N-[2-[4-(cyclopropylcarbamoyl)phenyl]-1H-pyrrolo[2,3-b]pyridin-5-yl]-3,4-dimethyl-1H-pyrazole-5-carboxamide] | 0.0001 to 1 µM |
| Cc1n[nH]c(C(=O)Nc2cnc3sc(-c4ccccc4)nc3c2)c1C [P-2144, 3,4-dimethyl-N-(2-phenylthiazolo[5,4-b]pyridin-6-yl)-1H-pyrazole-5-carboxamide] | 1 to 10 µM |
| CNC(=O)c1ccc(-c2cc3cc(NC(=O)c4[nH]nc(C)c4C)cnc3[nH]2)cc1 [P-2067, 3,4-dimethyl-N-[2-[4-(methylcarbamoyl)phenyl]-1H-pyrrolo[2,3-b]pyridin-5-yl]-1H-pyrazole-5-carboxamide] | 0.0001 to 1 µM |
| Cc1n[nH]c(C(=O)Nc2cnc3[nH]c(C4=CCN(C(=O)C5CC5)C4)cc3c2)c1Cl [P-2060, 4-chloro-N-[2-[1-(cyclopropanecarbonyl)-2,5-dihydropyrrol-3-yl]-1H-pyrrolo[2,3-b]pyridin-5-yl]-3-methyl-1H-pyrazole-5-carboxamide] | 0.0001 to 1 µM |
| Cc1n[nH]c(C(=O)Nc2cnc3[nH]c(-c4ccc(C#N)c(N5CCOCC5)c4)cc3c2)c1C [P-2081, N-[2-(4-cyano-3-morpholino-phenyl)-1H-pyrrolo[2,3-b]pyridin-5-yl]-3,4-dimethyl-1H-pyrazole-5-carboxamide] | 0.0001 to 1 µM |
